Test results reported in ChEMBL document CHEMBL1201862, “PubChem BioAssay data set” (2004).
The source made the active and inactive calls.

Tests used:
[1] = viability loss in THP-1 monocytes – THP-1 cells, cytotoxicity control for Vif-APOBEC3G degradation inhibitor project, dose response (AID 1117359); format: functional; details: THP-1
[2] = biological target: T1, Corticotropin-releasing factor receptor 2/Corticotropin-releasing factor-binding protein (Homo sapiens, UniProt P24387+Q13324); assay: activators of CRF receptor 2 with binding protein – uHTS hits, confirmation (AID 602473); format: functional; details: read-out: EC50_Mean
T1 sequence (Q13324 whole entry): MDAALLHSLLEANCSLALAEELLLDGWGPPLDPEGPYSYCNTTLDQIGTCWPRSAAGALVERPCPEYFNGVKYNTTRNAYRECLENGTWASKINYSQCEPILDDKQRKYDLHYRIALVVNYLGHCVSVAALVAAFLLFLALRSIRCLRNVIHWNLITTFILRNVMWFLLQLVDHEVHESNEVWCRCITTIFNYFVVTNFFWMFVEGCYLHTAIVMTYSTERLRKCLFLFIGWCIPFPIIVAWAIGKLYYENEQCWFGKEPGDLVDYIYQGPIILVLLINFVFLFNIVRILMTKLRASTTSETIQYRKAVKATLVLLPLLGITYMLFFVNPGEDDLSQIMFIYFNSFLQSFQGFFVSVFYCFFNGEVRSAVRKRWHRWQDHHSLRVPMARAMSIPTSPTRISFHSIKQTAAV
T1 sequence (P24387 whole entry): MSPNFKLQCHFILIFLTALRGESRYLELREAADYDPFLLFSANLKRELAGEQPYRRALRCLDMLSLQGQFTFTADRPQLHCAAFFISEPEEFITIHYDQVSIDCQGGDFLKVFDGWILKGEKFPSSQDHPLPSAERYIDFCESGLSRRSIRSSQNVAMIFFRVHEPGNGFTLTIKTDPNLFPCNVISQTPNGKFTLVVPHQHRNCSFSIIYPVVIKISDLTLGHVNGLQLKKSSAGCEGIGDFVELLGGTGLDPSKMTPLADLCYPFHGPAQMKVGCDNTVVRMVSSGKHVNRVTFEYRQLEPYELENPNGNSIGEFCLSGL

[3] = biological target: T1, Corticotropin-releasing factor receptor 2/Corticotropin-releasing factor-binding protein; assay: Dose Response confirmation of uHTS hits for small molecule antagonists of the CRF-binding protein and CRF-R2 receptor complex.; format: functional; details: read-out: IC50_Mean
[4] = viability loss in HepG2 hepatoma cells – cell-based, ATP luminescence, cherry-pick, activator set 2, cytotoxicity control, dose response (AID 1053143); format: functional
[5] = biological target: Induced myeloid leukemia cell differentiation protein Mcl-1 (Homo sapiens, UniProt Q07820); format: functional
[6] = biological target: T2, Mannose-6-phosphate isomerase (Homo sapiens, UniProt P34949); assay: MPI inhibition at elevated mannose 6-phosphate – biochemical, fluorescence intensity, high mannose 6-phosphate, primary screen (AID 1220)
T2 sequence (P34949 whole entry): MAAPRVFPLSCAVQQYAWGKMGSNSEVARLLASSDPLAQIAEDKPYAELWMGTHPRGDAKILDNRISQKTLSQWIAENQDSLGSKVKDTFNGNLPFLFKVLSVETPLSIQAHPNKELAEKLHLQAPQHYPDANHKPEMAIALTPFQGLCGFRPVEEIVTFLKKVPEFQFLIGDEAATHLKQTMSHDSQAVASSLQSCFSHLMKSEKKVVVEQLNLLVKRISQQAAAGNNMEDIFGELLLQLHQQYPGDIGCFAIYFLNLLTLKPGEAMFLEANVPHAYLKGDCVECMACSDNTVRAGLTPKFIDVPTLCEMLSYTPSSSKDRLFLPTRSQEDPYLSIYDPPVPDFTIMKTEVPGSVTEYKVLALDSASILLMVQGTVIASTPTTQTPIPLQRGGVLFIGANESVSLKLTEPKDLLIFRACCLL

[7] = biological target: Nonstructural protein 1 (Influenza A virus, UniProt Q194T2); format: functional, Influenza A virus (A/California/07/2009(H1N1))
[8] = biological target: T3, Polyadenylate-binding protein 1 (Homo sapiens, UniProt P11940); assay: MLLE binding blockers, Cy5 peptide tracer – biochemical, fluorescence polarization, Cy5-PAM2 peptide, secondary, miRNA deadenylation inhibitor project, dose response (AID 602260); format: functional; details: read-out: IC50_Mean
[9] = biological target: T3, Polyadenylate-binding protein 1; assay: MLLE domain peptide-binding blockers, IC50 – biochemical, fluorescence polarization, FITC-PAM2 peptide, dose response (AID 602259); format: functional; details: read-out: IC50_Mean
[10] = biological target: T4, Protein skinhead-1 (Caenorhabditis elegans, UniProt P34707); format: functional
T4 sequence (P34707 whole entry): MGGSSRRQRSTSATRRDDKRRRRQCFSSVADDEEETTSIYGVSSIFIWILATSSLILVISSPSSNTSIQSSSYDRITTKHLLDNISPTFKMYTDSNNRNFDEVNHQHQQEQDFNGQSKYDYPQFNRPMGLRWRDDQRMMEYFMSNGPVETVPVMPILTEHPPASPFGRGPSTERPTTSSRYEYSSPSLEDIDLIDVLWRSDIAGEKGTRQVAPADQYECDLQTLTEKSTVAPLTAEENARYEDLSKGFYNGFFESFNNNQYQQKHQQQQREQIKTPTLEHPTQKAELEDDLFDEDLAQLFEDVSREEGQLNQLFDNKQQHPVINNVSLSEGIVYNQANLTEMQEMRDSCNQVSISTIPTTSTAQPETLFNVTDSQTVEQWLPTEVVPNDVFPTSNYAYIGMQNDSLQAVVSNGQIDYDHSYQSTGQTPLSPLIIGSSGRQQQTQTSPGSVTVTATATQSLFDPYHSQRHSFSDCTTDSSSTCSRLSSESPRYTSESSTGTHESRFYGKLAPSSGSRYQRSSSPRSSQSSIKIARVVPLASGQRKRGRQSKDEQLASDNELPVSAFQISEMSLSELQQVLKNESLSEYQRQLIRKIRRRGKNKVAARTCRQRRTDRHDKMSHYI

[11] = biological target: Mitogen-activated protein kinase 10 (Homo sapiens, UniProt P53779); assay: Dose response biochemical screening assay for inhibitors of c-Jun N-Terminal Kinase 3 (JNK3). [Related pubchem assays: 746 ]
[12] = biological target: T5, Oxysterols receptor LXR-beta (Homo sapiens, UniProt P55055); format: functional, cell-based;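 note: agonist activity at LXR measured by a cell-based luminescence readout across a dose range, run as a counterscreen for daf-12 agonists; HEK293 cells with Gal4-LXR fusion and GAL4-driven luciferase reporter; potency for activation of Gal4-LXR reporter so compounds are agonists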
T5 sequence (P55055 whole entry): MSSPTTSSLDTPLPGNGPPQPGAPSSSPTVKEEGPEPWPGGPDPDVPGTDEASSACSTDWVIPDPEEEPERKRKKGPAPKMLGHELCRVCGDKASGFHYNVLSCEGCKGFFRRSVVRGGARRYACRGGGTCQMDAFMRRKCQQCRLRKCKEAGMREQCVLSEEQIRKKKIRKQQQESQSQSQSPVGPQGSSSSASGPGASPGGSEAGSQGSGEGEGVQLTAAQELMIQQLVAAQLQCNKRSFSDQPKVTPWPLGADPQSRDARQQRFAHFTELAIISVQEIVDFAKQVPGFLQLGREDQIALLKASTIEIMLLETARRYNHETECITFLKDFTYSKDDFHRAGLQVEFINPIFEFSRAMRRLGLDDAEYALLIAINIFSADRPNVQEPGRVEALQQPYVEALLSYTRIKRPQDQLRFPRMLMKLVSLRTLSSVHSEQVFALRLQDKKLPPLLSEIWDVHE

[13] = Luminescence Cell-Based Dose Response to Identify Activators of Luciferase Translation or Activity in H4-C Neuroglioblastoma Cells. [Related pubchem assays: 1829 (Project Summary), 1814 (Primary HTS)]; format: functional
[14] = Luminescence Cell-Based Dose Response to Identify Activators of 5'UTR Stem-Loop Driven Prion Protein mRNA Translation in H4-C Neuroglioblastoma Cells. [Related pubchem assays: 1829 (Project Summary), 1814 (Primary HTS)]; format: functional
[15] = Luminescence Cell-Based Dose Confirmation to Identify Activators of 5'UTR Stem-Loop Driven Alpha-Synuclein mRNA Translation in H4 Neuroglioblastoma Cells. [Related pubchem assays: 1829 (Project Summary), 1814 (Primary HTS)]; format: functional
[16] = Luminescence Cell-Based Dose Response HTS to Identify Activators of Luciferase Translation or Activity in H4 […] Cells. [Related pubchem assays: 1829 (Project Summary), 1814 (Primary HTS)]; format: functional
[17] = biological target: T6, Rac GTPase-activating protein 1 (Homo sapiens, UniProt Q9H0H5); assay: blockers of MgcRacGAP-driven Rac1 GTP hydrolysis – biochemical, ADP Hunter fluorescence, primary and confirmatory, confirmation (AID 624330); format: functional
T6 sequence (Q9H0H5 whole entry): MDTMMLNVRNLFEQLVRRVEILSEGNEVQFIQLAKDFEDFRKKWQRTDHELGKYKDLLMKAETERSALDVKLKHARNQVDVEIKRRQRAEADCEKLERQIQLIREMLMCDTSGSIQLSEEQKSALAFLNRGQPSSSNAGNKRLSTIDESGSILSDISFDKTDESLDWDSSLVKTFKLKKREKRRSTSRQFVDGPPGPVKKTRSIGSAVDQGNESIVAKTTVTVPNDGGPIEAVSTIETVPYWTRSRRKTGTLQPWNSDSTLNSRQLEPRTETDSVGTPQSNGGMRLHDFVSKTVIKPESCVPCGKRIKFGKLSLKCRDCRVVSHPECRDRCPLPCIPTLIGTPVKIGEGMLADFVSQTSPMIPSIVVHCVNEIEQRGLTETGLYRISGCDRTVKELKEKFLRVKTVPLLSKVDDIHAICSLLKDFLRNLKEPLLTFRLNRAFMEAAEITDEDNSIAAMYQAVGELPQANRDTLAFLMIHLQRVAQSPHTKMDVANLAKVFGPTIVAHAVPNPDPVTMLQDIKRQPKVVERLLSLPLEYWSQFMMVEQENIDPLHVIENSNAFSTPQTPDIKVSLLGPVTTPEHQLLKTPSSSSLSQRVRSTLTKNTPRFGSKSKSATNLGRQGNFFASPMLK

[18] = biological target: Luciferin 4-monooxygenase (Photinus pyralis, UniProt P08659); assay: inhibition of purified Photinus pyralis luciferase – biochemical, luminescence, dose response (AID 1891)
[19] = Luminescence Cell-Based Dose Confirmation HTS to Identify Inhibitors of Platelet Dense Granule Release. [Related pubchem assays: 1663 (Primary HTS), 1678 (Summary of Project)]; format: functional
[20] = biological target: Large T antigen (Simian virus 40, UniProt P03070); format: functional, Betapolyomavirus macacae;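 note: Confirmatory-stage PubChem screen for compounds that inhibit SV40 T antigen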
[21] = viability loss in HeLa cells – cytotoxicity control for MgcRacGAP inhibitor project, dose response (AID 624300); format: functional
[22] = Dd2 parasite growth inhibition in erythrocytes – SYBR Green, dry powder samples, set 9, dose response (AID 1159568); format: functional, cell-based
[23] = growth inhibition of PfATP4-mutant resistant parasites – NITD609-resistant line, SYBR Green, dry powder, dose response (AID 1159571); format: functional, cell-based;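 note: parasites synchronized at ring stage by sorbitol before testing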
[24] = growth inhibition of yeast DHODH-expressing 3D7 parasites – SYBR Green, dry powder samples, dose response (AID 1159570); format: functional, cell-based;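 note: parasite growth measured after 72 hours of compound exposure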
[25] = P. falciparum Dd2 growth inhibitors, dose response, SYBR Green, cherry-picked samples (AID 1159567); format: functional, cell-based
[26] = Dd2 malaria parasite growth inhibition potency – SYBR Green, dry powder samples, dose response (AID 1159566); format: functional, cell-based;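 note: potency for growth inhibition with lower SYBR green DNA signal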

Sequence of Mitogen-activated protein kinase 10 (P53779 whole entry, the tested form may be a part): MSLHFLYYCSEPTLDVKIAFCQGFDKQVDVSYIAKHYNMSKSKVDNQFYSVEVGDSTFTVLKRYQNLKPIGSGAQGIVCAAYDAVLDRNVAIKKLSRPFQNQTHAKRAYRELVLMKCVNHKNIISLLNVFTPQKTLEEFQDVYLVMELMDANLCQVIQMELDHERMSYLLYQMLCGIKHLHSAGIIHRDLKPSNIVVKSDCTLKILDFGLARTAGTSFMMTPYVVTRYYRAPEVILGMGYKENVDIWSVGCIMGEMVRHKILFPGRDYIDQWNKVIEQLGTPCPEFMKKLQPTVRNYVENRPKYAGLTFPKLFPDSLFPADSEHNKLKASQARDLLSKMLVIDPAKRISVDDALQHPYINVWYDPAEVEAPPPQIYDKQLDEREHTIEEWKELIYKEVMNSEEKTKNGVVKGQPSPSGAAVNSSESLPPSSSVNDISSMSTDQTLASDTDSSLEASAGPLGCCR
T3 sequence (P11940 whole entry, the tested form may be a part): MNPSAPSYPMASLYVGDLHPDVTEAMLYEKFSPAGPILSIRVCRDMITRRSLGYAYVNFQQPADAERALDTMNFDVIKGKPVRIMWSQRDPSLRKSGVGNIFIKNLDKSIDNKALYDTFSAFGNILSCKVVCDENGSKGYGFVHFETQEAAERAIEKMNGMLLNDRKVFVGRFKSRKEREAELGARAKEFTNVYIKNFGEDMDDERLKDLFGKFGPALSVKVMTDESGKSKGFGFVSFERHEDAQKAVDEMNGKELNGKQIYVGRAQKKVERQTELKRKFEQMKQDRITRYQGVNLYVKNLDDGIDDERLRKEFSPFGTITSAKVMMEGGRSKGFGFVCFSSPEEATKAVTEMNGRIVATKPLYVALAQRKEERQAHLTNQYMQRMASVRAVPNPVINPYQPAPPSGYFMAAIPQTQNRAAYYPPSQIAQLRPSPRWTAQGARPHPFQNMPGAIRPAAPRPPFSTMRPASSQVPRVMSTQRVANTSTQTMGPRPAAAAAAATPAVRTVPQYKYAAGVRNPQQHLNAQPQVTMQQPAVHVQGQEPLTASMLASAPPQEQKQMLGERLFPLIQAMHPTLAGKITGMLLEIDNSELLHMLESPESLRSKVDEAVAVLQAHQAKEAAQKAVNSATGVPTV
Sequence of Induced myeloid leukemia cell differentiation protein Mcl-1 (Q07820 whole entry): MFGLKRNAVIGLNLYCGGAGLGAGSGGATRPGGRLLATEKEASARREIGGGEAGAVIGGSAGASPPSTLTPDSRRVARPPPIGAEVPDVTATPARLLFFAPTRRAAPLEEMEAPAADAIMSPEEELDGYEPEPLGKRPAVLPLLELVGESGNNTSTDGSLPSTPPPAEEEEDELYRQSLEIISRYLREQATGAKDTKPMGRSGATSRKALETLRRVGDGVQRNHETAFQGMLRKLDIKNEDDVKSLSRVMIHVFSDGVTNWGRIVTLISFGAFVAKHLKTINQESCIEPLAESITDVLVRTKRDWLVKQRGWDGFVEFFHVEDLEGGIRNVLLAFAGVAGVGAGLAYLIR
Sequence of Large T antigen (P03070 whole entry): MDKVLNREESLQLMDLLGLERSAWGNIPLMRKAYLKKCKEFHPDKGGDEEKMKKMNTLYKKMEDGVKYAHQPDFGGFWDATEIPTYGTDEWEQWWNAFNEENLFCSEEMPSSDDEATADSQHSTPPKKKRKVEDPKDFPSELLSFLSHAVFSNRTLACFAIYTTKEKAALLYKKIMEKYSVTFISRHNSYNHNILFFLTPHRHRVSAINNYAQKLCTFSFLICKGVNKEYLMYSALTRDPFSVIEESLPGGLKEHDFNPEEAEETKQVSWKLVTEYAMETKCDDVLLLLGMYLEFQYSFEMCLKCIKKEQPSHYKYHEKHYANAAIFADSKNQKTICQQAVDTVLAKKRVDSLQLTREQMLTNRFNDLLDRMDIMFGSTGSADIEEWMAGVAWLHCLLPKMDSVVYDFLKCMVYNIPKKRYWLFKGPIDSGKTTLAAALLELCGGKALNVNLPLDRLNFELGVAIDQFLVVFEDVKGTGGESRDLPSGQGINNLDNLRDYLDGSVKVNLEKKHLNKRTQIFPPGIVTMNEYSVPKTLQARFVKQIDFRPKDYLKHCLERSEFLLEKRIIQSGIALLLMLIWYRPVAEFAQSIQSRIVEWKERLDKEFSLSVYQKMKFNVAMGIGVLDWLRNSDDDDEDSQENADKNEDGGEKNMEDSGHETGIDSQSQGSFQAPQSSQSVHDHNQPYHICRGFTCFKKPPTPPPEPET
Sequence of Luciferin 4-monooxygenase (P08659 whole entry): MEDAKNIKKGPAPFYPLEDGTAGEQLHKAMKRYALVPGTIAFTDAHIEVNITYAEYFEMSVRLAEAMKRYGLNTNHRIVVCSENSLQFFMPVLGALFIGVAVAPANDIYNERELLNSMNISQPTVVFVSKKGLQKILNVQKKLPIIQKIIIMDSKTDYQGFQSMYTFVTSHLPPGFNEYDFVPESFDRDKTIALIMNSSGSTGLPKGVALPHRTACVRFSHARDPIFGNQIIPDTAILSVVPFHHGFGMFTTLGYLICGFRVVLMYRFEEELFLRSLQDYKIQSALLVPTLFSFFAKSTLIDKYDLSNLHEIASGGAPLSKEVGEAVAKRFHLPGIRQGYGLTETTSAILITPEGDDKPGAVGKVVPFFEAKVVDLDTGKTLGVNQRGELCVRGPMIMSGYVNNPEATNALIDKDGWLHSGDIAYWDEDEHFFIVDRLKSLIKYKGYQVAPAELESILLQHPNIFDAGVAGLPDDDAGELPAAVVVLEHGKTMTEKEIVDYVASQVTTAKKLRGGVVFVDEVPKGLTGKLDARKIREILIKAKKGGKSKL
Sequence of Nonstructural protein 1 (Q194T2 whole entry): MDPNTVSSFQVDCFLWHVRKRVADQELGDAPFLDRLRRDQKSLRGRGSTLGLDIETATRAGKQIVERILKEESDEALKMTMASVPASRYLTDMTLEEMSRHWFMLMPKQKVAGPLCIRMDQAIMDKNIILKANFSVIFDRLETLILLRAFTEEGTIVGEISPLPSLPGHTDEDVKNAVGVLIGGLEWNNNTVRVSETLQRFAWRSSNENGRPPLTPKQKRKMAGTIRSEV

CN(C)CCNC(=O)C(=O)c1c(-c2ccccc2)cc2ccccn12
CC50 [1]: > 40 µM (active)
EC50 [2]: > 53 µM (inactive)
IC50 [3]: > 47.1 µM (inactive)

Cc1ccc(Nc2ncnc(-n3cccc3)n2)cc1Cl
AC50 [4]: > 52 µM (inactive)

CCOC(=O)c1c(C)oc2c1c(CN1CCN(C(=O)OCC)CC1)c(O)c1ccccc12
IC50 [5]: 3.95 µM (active)
IC50 [6]: > 50 µM (not active)

CNc1cccc2c1C(=O)c1ccccc1C2=O
IC50 [7]: 8.18 µM (active)
IC50 [8]: > 66 µM (inactive)
IC50 [9]: 49.1 µM (inactive)
IC50 [10]: > 100 µM (inactive)

CCc1ccc2c(COC(=O)c3n[nH]c4ccccc34)cc(=O)oc2c1
IC50 [11]: > 93.1 µM (not active)

CNC(=O)c1[nH]cnc1C(=O)Nc1cccc(OC)c1
IC50 [11]: 50.1 µM (not active)

COc1ccc(C(C)=O)cc1COC(=O)c1cc(C)oc1C
IC50 [11]: 61.8 µM (not active)

Cn1c(NCc2c[nH]c3ccccc23)nc2ccccc21
EC50 [12]: > 67.5 µM (inactive)

COc1cccc(COC(=O)Nc2ccccc2F)c1
EC50 [13]: 0.344 µM (active)
EC50 [14]: 0.301 µM (active)
EC50 [15]: 0.456 µM (active)
EC50 [16]: < 0.1 µM (inconclusive)

COc1ccc(Oc2cnn(-c3ccccc3)c(=O)c2Br)cc1
EC50 [12]: > 67.5 µM (inactive)

CN=c1ccccc(-c2ccc3cc4c(cc3n2)OCO4)c1O
CC50 [1]: > 40 µM (active)

Cc1ccc(NC(=S)NC(=O)C2CCCC2)c(Br)c1
EC50 [12]: > 67.5 µM (inactive)

Oc1ccc(/C=N/Nc2nccnc2Cl)cc1
AC50 [4]: 13.7 µM (active)
IC50 [17]: 16.3 µM (active)
EC50 [18]: 1.12 µM (active)
EC50 [19]: 0.138 µM (active)
IC50 [20]: 6.32 µM (active)
CC50 [21]: 46.1 µM (active)

O=C(NC1CCC1)c1ccc(C#CC2CC2)cn1
EC50 [12]: > 67.5 µM (inactive)

COc1ccc2c3c([nH]c2c1)[C@H](CO)N(S(C)(=O)=O)CC31CCN(C(=O)Nc2ccccc2)CC1
AC50 [22]: 0.145 µM (active)

C[C@@H]1CN([C@@H](C)CO)C(=O)c2cccc(NC(=O)C3CC3)c2O[C@@H]1CN(C)C(=O)Nc1ccc(C(F)(F)F)cc1
AC50 [23]: 0.322 µM (active)
AC50 [24]: 0.312 µM (active)
AC50 [25]: 0.642 µM (active)
AC50 [26]: 0.275 µM (active)
AC50 [22]: 0.181 µM (active)

O=C(Nc1cccc(F)c1)N1CCCCN2[C@H](CO)[C@@H](c3ccc(C#Cc4cccnc4)cc3)[C@@H]2C1
AC50 [22]: 2.58 µM (active)

N#Cc1cccc(-c2ccc3c(c2)[C@H]2[C@H](CCN2S(=O)(=O)c2ccc(F)cc2)[C@@H](CO)N3)c1
AC50 [22]: 8.37 µM (active)
